Test results as given in patent US12453349B2, “Compositions comprising pyridine carboxylate herbicides and 4-hydroxyphenyl-pyruvate dioxygenase (HPPD) inhibitor herbicides” (Corteva Agriscience LLC, priority 2018, dated 2025).

Tests used:
Format in all cases: in vivo
[1] = test system: TRZAS, Triticum aestivum (spring wheat); assay: Greenhouse postemergence phytotoxicity on crop, visual injury 20-22 d after application; details: Sulcotrione 75 g ai/ha
Source text: (§1) Seeds of the desired test plant species were planted in a 90:10% v/v (volume/volume) mixture of PRO-MIX® BX (Premier Tech Horticulture, Quakertown, PA, USA) and PROFILE® GREENS GRADE™ (Profile Products LLC, Buffalo Grove, IL, USA) planting mixture, which typically has a pH of 5.2 to 6.2 and an organic matter content of at least 50 percent, in plastic pots with a surface area of 103.2 square centimeters (cm^2). In some aspects, to help ensure good germination and healthy plants, a fungicide treatment and/or other chemical or physical treatment was applied. The plants were grown for 7-36 days (d) in a greenhouse with an approximate 14-hour (h) photoperiod which was maintained at about 23° C. during the day and 22° C. during the night. Nutrients and water were added on a regular basis and supplemental lighting was provided with overhead metal halide 1000-Watt lamps as necessary. The plants were employed for testing when they reached the second or third true leaf stage.
(§2) Emulsifiable concentrates of each of each pyridine carboxylate herbicide (Compound A or Compound B) were prepared at 100 grams acid equivalent per liter (g ae/L). The emulsifiable concentrates also included a safener, cloquintocet mexyl, at 120 grams active ingredient per liter (g ai/L). An aliquot of each emulsifiable concentrate was placed in a 25 mL glass vial and diluted with an aqueous mixture of 1.25% (v/v) ACTIROB® B esterified rapeseed oil (Bayer Crop Science, Research Triangle Park, NC, USA) or MSO® Concentrate with LECI-TECH® methylated soybean oil (Loveland Products, Loveland, CO, USA) to obtain concentrated stock solutions at the highest application rate for each herbicide, based upon a 12 milliliter (mL) application volume at a rate of 187 liters per hectare (L/ha). The concentrated stock solutions were further diluted with an aqueous mixture of 1.25% v/v ACTIROB® B or MSO® Concentrate with LECI-TECH® to obtain stock solutions at reduced application rates for each herbicide. Spray solutions of the herbicide combinations (Compound A or Compound B plus HPPD inhibitor herbicide) were prepared by adding weighed amounts or aliquots of the HPPD inhibitor herbicides to the stock solutions of Compound A or Compound B to form 12-mL spray solutions in two-way combinations.
(§3) The spray solutions were applied to the plant material with an overhead Mandel track sprayer equipped with 8002E nozzles calibrated to deliver 187 L/ha over an application area of 0.503 square meters (m^2) at a spray height of 18 inches (43 centimeters (cm)) above the average plant canopy. Control plants were sprayed in the same manner with the solvent blank. All pyridine carboxylate herbicide (component a) application rates are given as “g ae/ha” and all HPPD inhibitor herbicide (component b) application rates are given as “g ai/ha.”
(§4) The treated plants and control plants were placed in a greenhouse as described above and watered by sub-irrigation to prevent wash-off of the test compounds. After 20-22 d, the condition of the test plants as compared with that of the control plants was determined visually and scored on a scale of 0 to 100 percent where 0 corresponds to no injury and 100 corresponds to complete kill.

[2] = test system: HORVS, Hordeum vulgare (spring barley); assay: as above; details: Sulcotrione 75 g ai/ha
Source text: as §1, §2, §3, §4

[3] = test system: BRSNN, Brassica napus (spring rape); assay: Greenhouse postemergence herbicidal effect, visual injury 20-22 d after application; details: Sulcotrione 75 g ai/ha
Source text: as §1, §2, §3, §4

[4] = test system: KCHSC, Kochia scoparia (kochia); assay: as above; details: Bassia scoparia, post-emergence, read-out: % visual injury Obs
Source text: as §1, §2, §3, §4

[5] = test system: AMARE, Amaranthus retroflexus (pigweed); assay: as above
Source text: as §1, §2, §3, §4

[6] = test system: EPHHL, Euphorbia heterophylla (poinsettia); assay: as above; details: Mesotrione 35 g ai/ha
Source text: as §1, §2, §3, §4

[7] = test system: ABUTH, Abutilon theophrasti (velvetleaf); assay: as above
Source text: as §1, §2, §3, §4

[8] = test system: POLCO, Polygonum convolvulus (wild buckwheat); assay: as above
Source text: as §1, §2, §3, §4

[9] = test system: VIOTR, Viola tricolor (wild pansy); assay: as above
Source text: as §1, §2, §3, §4

[10] = test system: CIRAR, Cirsium arvense (Canadian thistle); assay: as above
Source text: as §1, §2, §3, §4

[11] = test system: HELAN, Helianthus annuus (common sunflower); assay: as above
Source text: as §1, §2, §3, §4

[12] = test system: SASKR, Salsola kali (Russian thistle); assay: as above; details: Pyrazolynate 225 g ai/ha
Source text: as §1, §2, §3, §4

[13] = test system: SINAR, Sinapis arvensis (wild mustard); assay: as above; details: Pyrazolynate 225 g ai/ha
Source text: as §1, §2, §3, §4

[14] = test system: BRSNW, Brassica napus (winter rape); assay: as above; details: Pyrazolynate 225 g ai/ha
Source text: as §1, §2, §3, §4

[15] = test system: CHEAL, Chenopodium album L. (common lambsquarters); assay: as above; details: Pyrazolynate 225 g ai/ha
Source text: as §1, §2, §3, §4

[16] = test system: MATCH, Matricaria chamomilla (wild chamomile); assay: as above; details: Pyrazolynate 225 g ai/ha
Source text: as §1, §2, §3, §4

[17] = test system: IPOHE, Ipomoea hederacea (ivyleaf morningglory); assay: as above; details: Isoxaflutole 60 g ai/ha
Source text: as §1, §2, §3, §4

[18] = Mesotrione 35 g ai/ha (Table 8)

CS(=O)(=O)c1ccc(C(=O)C2C(=O)CCCC2=O)c(Cl)c1 [Sulcotrione, 2-[2-chloro-4-(methylsulfonyl)benzoyl]-1,3-cyclohexanedione]
% visual injury Obs [1]: 0% | % visual injury Obs [2]: 8% | % visual injury Obs [3]: 75% | pest or weed control at 75 g/ha [4]: 30%

CS(=O)(=O)c1ccc(C(=O)C2C(=O)CCCC2=O)c([N+](=O)[O-])c1 [Mesotrione, 2-[4-(methylsulfonyl)-2-nitrobenzoyl]-1,3-cyclohexanedione]
% visual injury Obs ([5]; Mesotrione 35 g ai/ha): 90% | % visual injury Obs [6]: 100% | % visual injury Obs ([7]; Mesotrione 35 g ai/ha): 99% | % visual injury Obs [7, 18]: 85% | % visual injury Obs ([8]; Mesotrione 35 g ai/ha): 75% | % visual injury Obs ([9]; Mesotrione 35 g ai/ha): 75% | % visual injury Obs [9, 18]: 78% | % visual injury Obs ([10]; Mesotrione 35 g ai/ha): 84% | % visual injury Obs [10, 18]: 73% | pest or weed control at 35 g/ha ([4]; KCHSC, Mesotrione 35 g ai/ha): 35% | % visual injury Obs ([11]; Mesotrione 35 g ai/ha): 90%

Cc1ccc(S(=O)(=O)Oc2c(C(=O)c3ccc(Cl)cc3Cl)c(C)nn2C)cc1 [Pyrazolynate, (2,4-dichlorophenyl) [1,3-dimethyl-5-[[(4-methylphenyl)sulfonyl]oxy]-1H-pyrazol-4-yl]methanone]
% visual injury Obs [12]: 0% | % visual injury Obs ([5]; Pyrazolynate 225 g ai/ha): 10% | % visual injury Obs ([8]; Pyrazolynate 225 g ai/ha): 5% | % visual injury Obs [13]: 5% | % visual injury Obs ([10]; Pyrazolynate 225 g ai/ha): 0% | % visual injury Obs [14]: 0% | pest or weed control at 225 g/ha ([4]; KCHSC, Pyrazolynate 225 g ai/ha): 0% | % visual injury Obs [15]: 5% | % visual injury Obs [16]: 0%

CS(=O)(=O)c1cc(C(F)(F)F)ccc1C(=O)c1cnoc1C1CC1 [Isoxaflutole, (5-cyclopropyl-4-isoxazolyl)[2-(methylsulfonyl)-4-(trifluoromethyl)phenyl]methanone]
% visual injury Obs ([5]; Isoxaflutole 60 g ai/ha): 53% | % visual injury Obs [17]: 38% | % visual injury Obs ([7]; Isoxaflutole 60 g ai/ha): 58% | % visual injury Obs ([8]; Isoxaflutole 60 g ai/ha): 0% | % visual injury Obs ([9]; Isoxaflutole 60 g ai/ha): 25% | % visual injury Obs ([10]; Isoxaflutole 60 g ai/ha): 70% | pest or weed control at 60 g/ha ([4]; KCHSC, Isoxaflutole 60 g ai/ha): 38% | % visual injury Obs ([11]; Isoxaflutole 60 g ai/ha): 85%
